# Values joined by “and” are separate entries in the source; they are usually repeats but may differ in a detail not shown here. Identical values can stand only once. “Also recorded” adds a separate entry of the source.
# Columns and labels:
# [1] = system: RT112 urinary bladder carcinoma; experiment: Antitumor activity against s.c. RT112 tumors in nude mice; assay type: in vivo, female Hsd: Athymic Nude-nu mice; settings: for Mean change of tumor volume / Final Tumor Volume: Clarke 1997 analysis table; for Final Tumor Volume: end of 14 days treatment, in mm³ (unit assumed)
# Procedure: Animals: Experiments are performed in female Hsd: Athymic Nude-nu mice obtained from Harlan Cpb, Germany. Animals are from 8 to 14 weeks of age at treatment start and are housed under Optimized Hygienic Conditions in Makrolon type III cages (max. 10 animals per cage) with free access to food and water
# Establishment of RT112 tumors: The RT112 human urinary bladder carcinoma cell line was initially derived from a patient with untreated primary urinary bladder carcinoma in 1973. RT112 cells are cultured as in Example 1. To establish tumors, RT112 cells suspended in Hanks' balanced salt solution (HBSS) containing 50% Matrigel (BD #356234) are injected subcutaneously into the right flank. A total of 5×10^6 cells in 100 μl are injected per animal.
# Evaluation of antitumor activity: Treatments are initiated when the mean tumor volumes were approximately 180 mm^3 (14 days post tumor cells injection). Body weights and tumor volumes are recorded twice a week. Tumor volumes are measured with calipers and determined according to the formula length×diameter^2×π/6. In addition to presenting changes of tumor volumes over the course of treatments, antitumor activity is expressed as T/C % (mean change of tumor volume of treated animals/mean change of tumor volume of control animals)×100. Regressions (%) are calculated according to the formula ((mean tumor volume at end of treatment-mean tumor volume at start of treatment)/mean tumor volume at start of treatment)×100.
# Preparation of Compound Solutions: Vehicle control is prepared by mixing 250 μl 1-methyl-2-pyrrolidone (“NMP”)(Fluka #69118), 750 μl Polyethylene glycol 300 (“PEG300”)(Fluka, #81162), 500 μl Solutol HS15 (BASF, #51633963) and 1000 μl water.
# Statistics: For all tests, the level of significance is set at p<0.05. For tumor volumes, comparisons between treatment groups and vehicle control group are done using one-way ANOVA followed by Dunnett's test. The level of significance of body weight change within a group between the start and the end of the treatment period is determined using a paired t-test. Comparisons of delta body weighs between treatment and vehicle control groups are performed by a one-way ANOVA followed by a post hoc Dunnett's test. Calculations are performed using GraphPad Prism 6 for Windows (GraphPad Software Inc.).
# Estimation of drug-drug interaction: an approximation of drug interactions is made using the method described by Clarke R., “Issues in experimental design and endpoint analysis in the study of experimental cytotoxic agents in vivo in breast cancer and other models”, Breast Cancer Res. Treat., 46, 255-78 (1997) (“Clark 1997”). This is applied to ΔTV (Mean tumor volume at the end of the treatment period—mean tumor volume at the beginning of the treatment period).
# Upon performance of the foregoing experiment, the results are summarized in the table below: Ten millions RT-112 cells are injected subcutaneously into the right flank of female athymic nude mice on Day 0. On day 14, tumors are measured and mice are randomized into treatment groups with 8 mice per group. […] Statistics on Δ tumor volumes are performed with a one-way ANOVA, post hoc Dunnett's (*p<0.05 vs. vehicle controls) to compare treatment groups against the vehicle control group. For body weights, paired t tests between the weights at the beginning and the end of the treatment period are performed (*p<0.05).
# A compound interaction analysis with the method described by Clarke 1997 is conducted. In accordance with this method, the experimental data is interpreted as follows: antagonism is predicted when the calculation AB/C>B/C×A/C, additive interaction is predicted when the calculation AB/C=B/C×A/C, and synergistic when AB/C<B/C×A/C.
# pAKT (AKTpS473) = experiment: Immunohistochemistry of RT112 tumors: pAKT; assay type: in vivo, female Hsd: Athymic Nude-nu mice; settings: 7 days, Compound A 50 mg/kg, Compound B 10 mg/kg, 2 hours after last treatment
# Procedure: (§1) Animals: Experiments are performed in female Hsd: Athymic Nude-nu mice obtained from Harlan Cpb, Germany. Animals are from 8 to 14 weeks of age at treatment start and housed under Optimized Hygienic Conditions in Makrolon type III cages (max. 10 animals per cage) with free access to food and water
# (§2) Establishment of RT112 tumors and compound treatments: The RT112 human urinary bladder carcinoma cell line was initially derived from a patient with untreated primary urinary bladder carcinoma in 1973 (Marshall et al. 1977, Masters et al. 1986). RT112 cells are cultured as in Example 1. Tumor establishment is done as in Example 2. Treatments are initiated when the mean tumor volumes are approximately 240 mm^3 (20 days post tumor cells injection).
# (§3) Dissection: 2 hours after the last treatment animals are anaesthetized by Forene inhalation narcosis and euthanized by cervical dislocation. Each tumor is dissected, is cut into two equal pieces and is processed for formalin-fixed paraffin embedded sectioning. […]
# (§4) Slides are mounted on a Ventana Discovery XT immunostainer and are processed for automated IHC by using a ChromoMAP kit and an OmniMAP anti Rabbit polymer-based amplification system. […] Endogenous peroxidase activities were subsequently quenched by using the ready to use solution from the ChromoMAP kit. […]
# pErk1/2 (pMAPK) = experiment: Immunohistochemistry of RT112 tumors: pErk1/2 (pMAPK); assay type: in vivo, female Hsd: Athymic Nude-nu mice; settings: 7 days, Compound A 50 mg/kg, Compound B 10 mg/kg, 2 hours after last treatment
# Procedure: as §1, §2, §3, §4
# [2] = system: FGFR kinase receptors 1-4 (FGFR1, FGFR2, FGFR3, and FGFR4); settings: cited from earlier work
# [3] = Compound A 50 mg/kg, Compound B 10 mg/kg, p.o., q24 h, 14 days
SMILES,Mean change of tumor volume [1],"% change of body weight [1, 3] [%]","Regression (%) [1, 3]","Survival (survivors/total) [1, 3]","Mean change of body weight (g ± SEM) ([1]; Compound A 50 mg/kg, Compound B 10 mg/kg, p.o., q24 h, 14 days, *p<0.05 paired t test) [g]",Final Tumor Volume [1],inhibition of pAKT (immunohistochemistry) (pAKT (AKTpS473)),"T/C (%) (change in tumor volume, treated vs vehicle) ([1]; 10 mg/kg p.o. q24 h, 14 days, non-statistically significant)","T/C (%) [1, 3] [%]","Mean change of tumor volume (mm^3 ± SEM) ([1]; Compound A 50 mg/kg, Compound B 10 mg/kg, p.o., q24 h, 14 days, *p<0.05 vs vehicle) [mm^3]","ratio to vehicle control (B/C, A/C, AB/C) ([1]; based on Final Tumor Volume)","ratio to vehicle control (B/C, A/C, AB/C) ([1]; based on Mean change of tumor volume)",inhibition of pErk1/2 (pMAPK) (immunohistochemistry) (pErk1/2 (pMAPK)),selectivity for FGFR kinase receptors 1-4 [2]
"Cc1nc(NC(=O)N2CCC[C@H]2C(N)=O)sc1-c1ccnc(C(C)(C)C(F)(F)F)c1 [Compound A, (S)-Pyrrolidine-1,2-dicarboxylic acid 2-amide 1-({4-methyl-5-[2-(2,2,2-trifluoro-1,1-dimethyl-ethyl)-pyridin-4-yl]-thiazol-2-yl}-amide)]",−2,−0.8,1.1% and −1.1%,8/8,-0.2 ± 0.4,179.4,strongly inhibits; also recorded: significantly inhibits,–,–,–,–,–,–,–
"CCN1CCN(c2ccc(Nc3cc(N(C)C(=O)Nc4c(Cl)c(OC)cc(OC)c4Cl)ncn3)cc2)CC1 [Compound B, 3-(2,6-dichloro-3,5-dimethoxy-phenyl)-1-{6-[4-(4-ethylpiperazin-1-l)-phenylamino]-pyrimidin-4-yl}-1-methyl-urea]",145.6,–,–,8/8,–,327.2,–,54.4,54.4,145.6 ± 66.5,0.728,0.544,strongly inhibits; also recorded: significantly inhibits,highly selective
